Patent US10072005B2, “4-azaindole derivatives” (EISAI R&D MANAGEMENT CO., LTD., priority 2013, dated 2018)

What follows are molecules tested against mAChR M1 (Homo sapiens, UniProt P11229) (assay: In vitro cellular calcium flux assay, positive allosteric modulation of mAChR M1). Settings: not given.
Type: cell-based
Protocol: Baby hamster kidney cells stably expressing human or rat mAChR M1 to M5 were utilised for primary and selectivity profiling activities. mAChR M2 and M4 cell lines also stably expressed the chimeric Gαqi5 G-protein.
Human mAChR M1, M3, M5 and rat M1 cells were grown in low glucose Dulbecco's Modified Eagle's Medium (DMEM) medium plus heat inactivated 10% fetal bovine serum (HI FBS) and 500 μg/ml hygromycin B^1. Human mAChR M2 and M4 cells were maintained as above with^2 the addition of 500 μg/ml G418 to the media. Cells were maintained in culture at 37° C./5% CO2 and passaged twice weekly by treatment with 0.05% Trypsin/EDTA detachment solution, centrifugation (200 g, 5 min) and re-suspension in fresh media. Following cell expansion, cells were cryopreserved at −80° C. by treatment with 0.05% Trypsin/EDTA detachment solution, centrifugation (200 g, 5 min) and re-suspension of the pellet in freezing media (90% HI FBS/10% DMSO^3) at 15E6 cells/ml^4.
Prior to assaying, cells were prepared by thawing at 37° C. in a water bath, centrifugation (200 g, 5 min) and re-suspension of the pellet in fresh media. 15000 cells per well were seeded in black, clear bottomed 384-well Greiner Bio-One plates in plating medium (DMEM/10% HI FBS) and incubated overnight at 37 C/5% CO2.
On the day of the assay, media was removed from each well and replaced with 50 μl^5 assay buffer (HBSS with 20 mM HEPES and 2.5 mM Probenecid) containing the calcium indicator, Calcium 4 (Molecular Devices). Cells were then incubated at 37° C./5% CO2 for 30 min and at room temperature.
Compound preparation was carried out by generation of 11-point, 1 in 3 serial dilution concentration response curves in 100% DMSO. Compound was then diluted 1 in 65^6 with assay buffer (HBSS with 20 mM HEPES and 2.5 mM Probenecid) prior to the addition of 10 ul^7 to the cells using a Tetra fluorometric imaging plate reader (Molecular Devices)^8. Compound driven increases in intracellular calcium flux was measured as an increase in fluorescence (494Ex, 516Em)^9.
Positive allosteric modulator pEC50 values and antagonist pIC50 values for each compound were then determined. […] The points of modification and the alternate reagents, concentrations or equipment employed in these examples were: ^1200 μg/ml hygromycin B; ^2G418 not added; ^3CELLBANKER 1; ^410E6; ^5 40 μl; ^6 1 in 99; ^7 20 μl; ^8FDSS6000 (Hamamatsu Photonics); ^9(480Ex, 540Em); ^10Spotfire (TIBCO).

Sequence of mAChR M1 (P11229 whole entry, looked up): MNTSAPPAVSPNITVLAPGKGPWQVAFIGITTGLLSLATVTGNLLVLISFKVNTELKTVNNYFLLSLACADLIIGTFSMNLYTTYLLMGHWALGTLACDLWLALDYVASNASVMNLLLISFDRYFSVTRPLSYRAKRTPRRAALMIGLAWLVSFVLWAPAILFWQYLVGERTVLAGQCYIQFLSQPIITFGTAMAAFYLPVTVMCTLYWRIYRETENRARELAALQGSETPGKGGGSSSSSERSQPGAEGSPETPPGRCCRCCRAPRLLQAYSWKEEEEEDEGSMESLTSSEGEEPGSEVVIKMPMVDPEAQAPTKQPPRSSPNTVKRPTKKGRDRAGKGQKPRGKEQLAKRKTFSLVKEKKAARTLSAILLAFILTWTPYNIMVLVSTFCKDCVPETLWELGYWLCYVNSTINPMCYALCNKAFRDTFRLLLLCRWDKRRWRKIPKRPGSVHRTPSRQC

Work on `O=C(N[C@@H]1CCOC[C@H]1O)c1cn(Cc2cccc(F)c2)c2c(Cl)ccnc12` (single isomer, unassigned) [Example 86, 7-Chloro-1-(3-fluorobenzyl)-N-(trans-3-hydroxytetrahydro-2H-pyran-4-yl)-1H-pyrrolo[3,2-b]pyridine-3-carboxamide] yielded an EC50 of 25.1 nM.

Same assay, conditions: BHK cells expressing mAChR M1; EC20 carbachol; Examples 76-80 and 82-89 slightly modified procedure

Point of comparison: `O=C(N[C@H]1CCCC[C@@H]1O)c1cn(Cc2ccc(F)cn2)c2c(Cl)ccnc12` [Example 17, 7-Chloro-1-((5-fluoropyridin-2-yl)methyl)-N-((1S,2S)-2-hydroxycyclohexyl)-1H-pyrrolo[3,2-b]pyridine-3-carboxamide], “pEC50 for positive allosteric modulation” value 6.9. Against it:
- Cc1ccc(Cn2cc(C(=O)N[C@H]3CCCC[C@@H]3O)c3ncccc32)cc1 [Example 1, N-((1S,2S)-2-hydroxycyclohexyl)-1-(4-methylbenzyl)-1H-pyrrolo[3,2-b]pyridine-3-carboxamide] — within 0.2 log units, 7.0
- O=C(N[C@H]1CCCC[C@@H]1O)c1cn(Cc2cc(F)cc(F)c2)c2cccnc12 [Example 2, 1-(3,5-Difluorobenzyl)-N-((1S,2S)-2-hydroxycyclohexyl)-1H-pyrrolo[3,2-b]pyridine-3-carboxamide] — lower, 6.7
- O=C(N[C@H]1CCCC[C@@H]1O)c1cn(Cc2cc(F)ccc2F)c2cccnc12 [Example 3, 1-(2,5-Difluorobenzyl)-N-((1S,2S)-2-hydroxycyclohexyl)-1H-pyrrolo[3,2-b]pyridine-3-carboxamide] — within 0.2 log units, 6.8
- O=C(N[C@H]1CCCC[C@@H]1O)c1cn(Cc2cccc(F)c2)c2cccnc12 [Example 4, 1-(3-Fluorobenzyl)-N-((1S,2S)-2-hydroxycyclohexyl)-1H-pyrrolo[3,2-b]pyridine-3-carboxamide] — within 0.2 log units, 6.8
- Cc1nc(Cn2cc(C(=O)N[C@H]3CCCC[C@@H]3O)c3ncccc32)cs1 [Example 7, N-((1S,2S)-2-Hydroxycyclohexyl)-1-((2-methylthiazol-4-yl)methyl)-1H-pyrrolo[3,2-b]pyridine-3-carboxamide] — lower, 5.9
- O=C(N[C@H]1CCCC[C@@H]1O)c1cn(Cc2ccc(OC(F)(F)F)cc2)c2cccnc12 [Example 9, N-((1S,2S)-2-Hydroxycyclohexyl)-1-(4-(trifluoromethoxy)benzyl)-1H-pyrrolo[3,2-b]pyridine-3-carboxamide] — lower, 6.6
- O=C(N[C@H]1CCCC[C@@H]1O)c1cn(Cc2ccc(F)cc2)c2c(Cl)ccnc12 [Example 14, 7-Chloro-1-(4-fluorobenzyl)-N-((1S,2S)-2-hydroxycyclohexyl)-1H-pyrrolo[3,2-b]pyridine-3-carboxamide] — higher, 7.3
- O=C(N[C@H]1CCCC[C@@H]1O)c1cn(Cc2cccc(F)c2F)c2c(Cl)ccnc12 [Example 15, 7-Chloro-1-(2,3-difluorobenzyl)-N-((1S,2S)-2-hydroxycyclohexyl)-1H-pyrrolo[3,2-b]pyridine-3-carboxamide] — within 0.2 log units, 7.0
- Cc1cccc(Cn2cc(C(=O)N[C@H]3CCCC[C@@H]3O)c3nccc(Cl)c32)n1 [Example 16, 7-Chloro-N-((1S,2S)-2-hydroxycyclohexyl)-1-((6-methylpyridin-2-yl)methyl)-1H-pyrrolo[3,2-b]pyridine-3-carboxamide] — lower, 6.5
- O=C(NC1(CO)CCCC1)c1cn(Cc2ccc(F)cc2)c2cccnc12 [Example 21, 1-(4-Fluorobenzyl)-N-(1-(hydroxymethyl)cyclopentyl)-1H-pyrrolo[3,2-b]pyridine-3-carboxamide] — lower, 5.7
- O=C(N[C@H]1CCCC[C@@H]1O)c1cn(Cc2ccccc2F)c2cccnc12 [Example 22, 1-(2-Fluorobenzyl)-N-((1S,2S)-2-hydroxycyclohexyl)-1H-pyrrolo[3,2-b]pyridine-3-carboxamide] — lower, 6.5
- O=C(N[C@H]1CCCC[C@@H]1O)c1cn(Cc2ccc(Cl)cc2)c2cccnc12 [Example 23, 1-(4-Chlorobenzyl)-N-((1S,2S)-2-hydroxycyclohexyl)-1H-pyrrolo[3,2-b]pyridine-3-carboxamide] — lower, 6.6
- O=C(N[C@H]1CCCC[C@@H]1O)c1cn(Cc2ccc(F)cc2F)c2cccnc12 [Example 24, 1-(2,4-Difluorobenzyl)-N-((1S,2S)-2-hydroxycyclohexyl)-1H-pyrrolo[3,2-b]pyridine-3-carboxamide] — lower, 6.5
- Cc1ccc(Cn2cc(C(=O)N[C@H]3CCCC[C@@H]3O)c3ncccc32)cn1 [Example 25, N-((1S,2S)-2-Hydroxycyclohexyl)-1-((6-methylpyridin-3-yl)methyl)-1H-pyrrolo[3,2-b]pyridine-3-carboxamide] — lower, 6.2
- Cc1ccc(Cn2cc(C(=O)N[C@H]3CCCC[C@@H]3O)c3ncccc32)nc1 [Example 26, N-((1S,2S)-2-Hydroxycyclohexyl)-1-((5-methylpyridin-2-yl)methyl)-1H-pyrrolo[3,2-b]pyridine-3-carboxamide] — lower, 6.1
- O=C(NC1CCOCC1)c1cn(Cc2ccc(F)cc2)c2cccnc12 [Example 29, 1-(4-Fluorobenzyl)-N-(tetrahydro-2H-pyran-4-yl)-1H-pyrrolo[3,2-b]pyridine-3-carboxamide] — lower, 5.8
- O=C(NC1CCNCC1)c1cn(Cc2ccc(F)cc2)c2cccnc12 [Example 30, 1-(4-Fluorobenzyl)-N-(piperidin-4-yl)-1H-pyrrolo[3,2-b]pyridine-3-carboxamide] — lower, 6.5
- CN1CCC(NC(=O)c2cn(Cc3ccc(F)cc3)c3cccnc23)CC1 [Example 31, 1-(4-Fluorobenzyl)-N-(1-methylpiperidin-4-yl)-1H-pyrrolo[3,2-b]pyridine-3-carboxamide] — lower, 6.5
- N#Cc1ccnc2c(C(=O)N[C@H]3CCCC[C@@H]3O)cn(Cc3ccc(F)cc3)c12 [Example 32, 7-Cyano-1-(4-fluorobenzyl)-N-((1S,2S)-2-hydroxycyclohexyl)-1H-pyrrolo[3,2-b]pyridine-3-carboxamide] — lower, 6.7
- COc1ccnc2c(C(=O)N[C@H]3CCCC[C@@H]3O)cn(Cc3ccc(F)cc3)c12 [Example 37, 1-(4-Fluorobenzyl)-N-((1S,2S)-2-hydroxycyclohexyl)-7-methoxy-1H-pyrrolo[3,2-b]pyridine-3-carboxamide] — lower, 6.7
- COc1ccc2c(n1)c(C(=O)N[C@H]1CCCC[C@@H]1O)cn2Cc1ccc(F)cc1 [Example 38, 1-(4-Fluorobenzyl)-N-((1S,2S)-2-hydroxycyclohexyl)-5-methoxy-1H-pyrrolo[3,2-b]pyridine-3-carboxamide] — lower, 5.8
- O=C(N[C@H]1CCCC[C@@H]1O)c1cn(Cc2ccc(F)cc2)c2ccc(Cl)nc12 [Example 39, 5-Chloro-1-(4-fluorobenzyl)-N-((1S,2S)-2-hydroxycyclohexyl)-1H-pyrrolo[3,2-b]pyridine-3-carboxamide] — lower, 6.0
- Cc1ccc2c(n1)c(C(=O)N[C@H]1CCCC[C@@H]1O)cn2Cc1ccc(-n2cccn2)cc1 [Example 40, 1-(4-(1H-Pyrazol-1-yl)benzyl)-N-((1S,2S)-2-hydroxycyclohexyl)-5-methyl-1H-pyrrolo[3,2-b]pyridine-3-carboxamide] — lower, 6.5
